The results in this text go back to patent US12077503B2, “Substituted cyclic amides and their use as herbicides” (FMC CORPORATION, priority 2015, dated 2024).

Read-outs that look alike come from different tables or passages of the source.

Holding throughout (assay type): in vivo
The subject of test [1] is ducksalad (Heteranthera limosa). The test is described as follows: Test B flooded paddy test. The settings on record: Heteranthera limosa, Flood, 250 g ai/ha; scale of 0 to 100 where 0 is no effect and 100 is complete control; read-out: Ducksalad plant response rating. Summed up:
(§1)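 2-leaf plants; pots flooded 3 cm over soil; cpd added to paddy water; depth held; greenhouse 13–15 d; visual rating vs controls, 0 = no effect, 100 = complete control.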

The test system of test [2] is sedge, umbrella (small-flower umbrella sedge, Cyperus difformis). The test is described as follows: Test B flooded paddy test. The settings on record: Cyperus difformis, Flood, 250 g ai/ha; scale of 0 to 100 where 0 is no effect and 100 is complete control; read-out: Sedge, Umbrella plant response rating. Summed up:
as §1

Test [3] relates to barnyardgrass (Echinochloa crus-galli). The test is described as follows: Test B flooded paddy test. The settings on record: Echinochloa crus-galli, Flood, 250 g ai/ha; scale of 0 to 100 where 0 is no effect and 100 is complete control; read-out: Barnyardgrass plant response rating. An outline of the steps:
as §1

In test [4] the test system is rice (Oryra sativa). Put plainly: Test B flooded paddy test. To be noted: Oryza sativa, Flood, 250 g ai/ha; scale of 0 to 100 where 0 is no effect and 100 is complete control; read-out: Rice plant response rating. An outline of the steps: as §1
Test [5] relates to ryegrass, Italian (Italian ryegrass, Lolium multiflorum). Put plainly: Test A postemergence. To be noted: Lolium multiflorum, post-emergence, 240 h, 125 g ai/ha, postemergence. An outline of the steps:
(§2)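 In a loam soil and sand blend, planted seeds got a preemergence directed soil spray, and young plants at the one- to two-leaf stage, 2–10 cm high, got a postemergence application; ~10 d greenhouse hold; injury rated visually, 0 = none, 100 = complete control.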

Test [6] deals with Kochia (Kochia scoparia). Put plainly: Test A postemergence. The settings on record: Bassia scoparia, post-emergence, 240 h, 125 g ai/ha, postemergence. Summed up:
as §2

Test [7] concerns wheat (Triticum aestivum). Put plainly: Test A postemergence. To be noted: Triticum aestivum, post-emergence, 240 h, 125 g ai/ha, postemergence. Summed up: as §2
The subject of test [8] is ragweed (common ragweed, Ambrosia elatior). The test is described as follows: Test A postemergence. The settings on record: Ambrosia artemisiifolia, post-emergence, 240 h, 125 g ai/ha, postemergence. An outline of the steps: as §2
Test [9] deals with corn (Zea mays). Put plainly: Test A postemergence. The settings on record: Zea mays, post-emergence, 240 h, 125 g ai/ha, postemergence. Summed up: as §2
The test system of test [10] is blackgrass (Alopecurus myosuroides). Put plainly: Test A postemergence. To be noted: Alopecurus myosuroides, post-emergence, 240 h, 125 g ai/ha, postemergence. An outline of the steps:
as §2

The test system of test [11] is barnyardgrass (Echinochloa crus-galli). The test is described as follows: Test A postemergence. The settings on record: Echinochloa crus-galli, post-emergence, 240 h, 125 g ai/ha, postemergence. Summed up:
as §2

In test [12] the test system is giant foxtail (Setaria faberii). Put plainly: Test A postemergence. To be noted: Setaria faberi, post-emergence, 240 h, 125 g ai/ha, postemergence. An outline of the steps: as §2
For test [13], the system named is pigweed (Amaranthus retroflexus). The test is described as follows: Test A postemergence. The settings on record: Amaranthus retroflexus, post-emergence, 240 h, 125 g ai/ha, postemergence. Summed up: as §2
Test [14] concerns Galium (catchweed bedstraw, Galium aparine). Put plainly: Test A postemergence. To be noted: Galium, post-emergence, 240 h, 125 g ai/ha, postemergence. Summed up:
as §2

Turning to `CN1C[C@H](c2cccc(C3CC3)c2)[C@@H](C(=O)Nc2ccccc2F)C1=O` [Compound 815], the pest or weed control at 250 g/ha in test [1] was determined as 75%; in test [2] it was 0%; in test [3], 65%; in [4], 20%. Moreover, the pest or weed control at 125 g/ha in [5] (visual injury rating after approximately 10 d, read-out: Ryegrass, Italian plant response rating (0 to 100 scale, 0 no effect, 100 complete control)) was 60%; in test [6] (visual injury rating after approximately 10 d, read-out: Kochia plant response rating (0 to 100 scale, 0 no effect, 100 complete control)) it was 40%; in test [8] (visual injury rating after approximately 10 d, read-out: Ragweed plant response rating (0 to 100 scale, 0 no effect, 100 complete control)) it was 0%; in test [10] (visual injury rating after approximately 10 d, read-out: Blackgrass plant response rating (0 to 100 scale, 0 no effect, 100 complete control)), 50%; in [11] (visual injury rating after approximately 10 d, read-out: Barnyardgrass plant response rating (0 to 100 scale, 0 no effect, 100 complete control)), 100%; in test [12] (visual injury rating after approximately 10 d, read-out: Foxtail, Giant plant response rating (0 to 100 scale, 0 no effect, 100 complete control)) it was 90%. In addition, the pest or weed control at 125 g/ha in [13] (visual injury rating after approximately 10 d, read-out: Pigweed plant response rating (0 to 100 scale, 0 no effect, 100 complete control)) worked out at 20%; in [14] (visual injury rating after approximately 10 d, read-out: Galium plant response rating (0 to 100 scale, 0 no effect, 100 complete control)), 50%. Further, the plant injury at 125 g/ha in test [7] (visual injury rating after approximately 10 d, read-out: Wheat plant response rating (0 to 100 scale, 0 no effect, 100 complete control)) is 30%; in [9] (visual injury rating after approximately 10 d, read-out: Corn plant response rating (0 to 100 scale, 0 no effect, 100 complete control)) it was 50%.

As for `Cc1ccc(NC(=O)[C@H]2C(=O)N(C)C[C@@H]2c2cc(F)cc(F)c2)c(F)c1F` [Compound 771], the pest or weed control at 250 g/ha in test [1] turned out to be 100%; in [2] it was 0%; in test [3], 90%; in test [4] it was 20%. The pest or weed control at 125 g/ha was 20% in test [5] (visual injury after approximately 10 d, 0 to 100 scale (0 no effect, 100 complete control), read-out: Plant response rating, Ryegrass, Italian); 50% in test [6] (visual injury after approximately 10 d, 0 to 100 scale (0 no effect, 100 complete control), read-out: Plant response rating, Kochia); 20% in test [8] (visual injury after approximately 10 d, 0 to 100 scale (0 no effect, 100 complete control), read-out: Plant response rating, Ragweed); 70% in test [10] (visual injury after approximately 10 d, 0 to 100 scale (0 no effect, 100 complete control), read-out: Plant response rating, Blackgrass); 90% in test [11] (visual injury after approximately 10 d, 0 to 100 scale (0 no effect, 100 complete control), read-out: Plant response rating, Barnyardgrass); 90% in test [12] (visual injury after approximately 10 d, 0 to 100 scale (0 no effect, 100 complete control), read-out: Plant response rating, Foxtail, Giant). Besides, the pest or weed control at 125 g/ha in test [13] (visual injury after approximately 10 d, 0 to 100 scale (0 no effect, 100 complete control), read-out: Plant response rating, Pigweed) was found to be 0%; in test [14] (visual injury after approximately 10 d, 0 to 100 scale (0 no effect, 100 complete control), read-out: Plant response rating, Galium) it was 50%. Moreover, in test [7] (visual injury after approximately 10 d, 0 to 100 scale (0 no effect, 100 complete control), read-out: Plant response rating, Wheat), the plant injury at 125 g/ha is 30%. In [9] (visual injury after approximately 10 d, 0 to 100 scale (0 no effect, 100 complete control)), the Corn plant response rating (crop injury, 0 = no effect, 100 = complete kill) at 125 g/ha worked out at 40%.
